Laboratory results as given in patent US8246943B2, “Prebiotic composition” (Conopco, Inc., priority 2009, dated 2012).
Several values for one entry are separate records, joined by “and”; a condition that tells them apart may be missing. Identical values can stand only once.

Assays:
Bifidobacteria [1] = experiment: 3 stage in vitro gut model, bacterial populations; type: cell-based
Bacteroides = experiment: 3 stage in vitro gut model, bacterial populations; type: cell-based
[2] = system: Clostridia (C. histolyticum and C. perfringens); type: cell-based
[3] = system: Eubacterium rectale and Clostridium coccoides; experiment: 3 stage in vitro gut model, bacterial populations; type: cell-based
bifidobacteria [4] = details: background statement; cited from earlier work
[5] = prebiotic effect of black tea flavonoid components (test not described); details: statement in the description, no test given
[6] = SS1 (steady state without test substrate), vessel 1
[7] = SS1 (steady state without test substrate), vessel 2
[8] = SS1 (steady state without test substrate), vessel 3
[9] = SS2 (steady state with substrate added daily), vessel 1
[10] = SS2 (steady state with substrate added daily), vessel 2
[11] = SS2 (steady state with substrate added daily), vessel 3

Substance: Inulin
- Bifidobacteria population (Bifidobacteria [1]; [6]): 7.62 Log 10 cells/ml of culture fluid
- Bifidobacteria population (Bifidobacteria [1]; [7]): 7.52 Log 10 cells/ml of culture fluid
- Bifidobacteria population (Bifidobacteria [1]; [8]): 7.49 Log 10 cells/ml of culture fluid
- prebiotic effect in gut model (in words) (Bifidobacteria [1]; SS1 vs SS2, 1.33 g digested black tea solids per day (2.40 g before digestion), 5 g/day inulin): achieved a similar effect
- Bifidobacteria population (Bifidobacteria [1]; [9]): 8.45 Log 10 cells/ml of culture fluid
- Bifidobacteria population (Bifidobacteria [1]; [10]): 8.26 Log 10 cells/ml of culture fluid
- Bifidobacteria population (Bifidobacteria [1]; [11]): 8.15 Log 10 cells/ml of culture fluid
- Bacteroides population (Bacteroides; [6]): 7.23 Log 10 cells/ml of culture fluid
- Bacteroides population (Bacteroides; [7]): 8.53 Log 10 cells/ml of culture fluid
- Bacteroides population (Bacteroides; [8]): 8.35 Log 10 cells/ml of culture fluid
- Bacteroides population (Bacteroides; [9]): 6.36 Log 10 cells/ml of culture fluid
- Bacteroides population (Bacteroides; [10]): 8.81 Log 10 cells/ml of culture fluid
- Bacteroides population (Bacteroides; [11]): 8.55 Log 10 cells/ml of culture fluid
- Clostridia (C. histolyticum and C. perfringens) population [2]: 5.67 Log 10 cells/ml of culture fluid and 5.84 Log 10 cells/ml of culture fluid and 5.49 Log 10 cells/ml of culture fluid and 5.89 Log 10 cells/ml of culture fluid and 5.59 Log 10 cells/ml of culture fluid
- Eubacterium rectale and Clostridium coccoides population [3, 6]: 9.14 Log 10 cells/ml of culture fluid
- Eubacterium rectale and Clostridium coccoides population [3, 7]: 9.19 Log 10 cells/ml of culture fluid
- Eubacterium rectale and Clostridium coccoides population [3, 8]: 9.17 Log 10 cells/ml of culture fluid
- Eubacterium rectale and Clostridium coccoides population [3, 9]: 9.37 Log 10 cells/ml of culture fluid
- Eubacterium rectale and Clostridium coccoides population [3, 10]: 9.28 Log 10 cells/ml of culture fluid
- Eubacterium rectale and Clostridium coccoides population [3, 11]: 9.20 Log 10 cells/ml of culture fluid
- bifidobacteria in humans (bifidobacteria [4]): significantly increase bifidobacteria

Substance: theaflavins
- prebiotic effect (in words) [5]: little or no prebiotic effect

Substance: catechins
- prebiotic effect (in words) [5]: appear to reduce the prebiotic effect of thearubigins

Substance: fructo-oligosaccharides
- bifidobacteria in humans (bifidobacteria [4]): significantly increase bifidobacteria
